This is an account of results in patent US10760110B2, “Antibiotic testing and screening system” (priority 2017, dated 2020).

For assay [1], the system named is A. baumannii KW1 strains with β-lactamase plasmids. The assay is described as follows: Etest MIC of β-lactams, extended-spectrum β-lactamase, AmpC β-lactamase or carbapenemase (Table 18). Format: cell-based, Acinetobacter baumannii. The procedure, abridged:
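A. baumannii KW1 transformed by electroporation with pYMAb5 or pYMAb5Tc carrying PCR-cloned resistance genes plus flanking regions from clinical plasmids. MICs by Etest; values between two-fold dilutions rounded up to the next two-fold value.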

The test system of assay [2] is K. pneumoniae NVT1001 harbouring the pACYC177 plasmid with blaOXA-48. The assay is described as follows: Mouse peritonitis-sepsis infection model. Format: in vivo, Klebsiella pneumoniae. Here is the method: Pathogen-free 6- to 8-week-old male BALB/c mice were obtained from the National Laboratory Animal Center (Taiwan) and maintained in the pathogen-free vivarium of the Laboratory Animal Center of National Defense Medical Center (Taiwan). K. pneumoniae NVT1001 harbouring the pACYC177 plasmid with blaOXA-48 was cultured overnight at 37° C. in BHI broth and then diluted (1:100) in fresh BHI broth. The culture was incubated until the mid-exponential growth phase, and the cells were then washed once, resuspended in 0.85% sterile saline, and adjusted to the desired concentrations according to the OD600 value. The concentrations were verified by plating the cells to determine viable counts. […] Meanwhile, antibiotic doses were prepared in 0.85% sterile saline. At 1 hour post-inoculation, antibiotic or 0.85% sterile saline alone was administered as a single subcutaneous injection with a volume of 0.3 mL per dose. The mice were then monitored daily for 7 days to measure survival.

Assay [3] has the same test system. Nature of the assay: Broth microdilution MIC (CLSI). Conditions: Klebsiella pneumoniae; broth microdilution test; NVT1001 with pACYC177 blaOXA-48. Format: cell-based. As to the method:
(§1) The MICs of antibiotics were determined using the Etest (Biodisk AB, Sweden) according to the manufacturer's instructions. The MICs from the Etest, which fall between standard two-fold dilutions, were rounded up to the next highest two-fold value. The MICs of ceftazidime and cefotaxime against K. pneumoniae NVT1001 harbouring the pACYC177 plasmid with blaOXA-48 were further determined using a broth microdilution test according to the recommendations of the CLSI,^25 and the results were interpreted according to the breakpoints established by the CLSI in 2017.^25 Meanwhile, due to the lack of CLSI breakpoints in 2016 and 2017, the results for cephalothin were interpreted according to the breakpoints established by the CLSI in 2015,^26 and the results for moxifloxacin were interpreted according to the breakpoints established by the EUCAST in 2017.^27

Assay [4] has as its system clinical K. pneumoniae isolate producing the carbapenemase OXA-48. Conditions: previous study; cited from earlier work.
For assay [5] the test system is unchanged. To be noted: previous study; cited from earlier work. This is another data set of the same source.
In assay [6] the test system is K. pneumoniae NVT1001 and its GyrA/ParC and ΔramR mutants. The assay is described as follows: Etest MIC of quinolones, GyrA/ParC mutations and AcrAB-TolC overexpression (ΔramR) (Table 10). In kind it is cell-based. Conditions: Klebsiella pneumoniae.
Excerpt: DNA fragments of the entire gyrA and parC sequences along with their flanking regions were amplified from K. pneumoniae strain NVT1001 using PCR with specific primer pairs and then cloned into the plasmid pUT-KB. The QuikChange site-directed mutagenesis kit (Stratagene) was used to generate mutations in the gyrA and parC genes in the plasmid using the methods described by the manufacturer. For homologous recombination, plasmids containing mutations in the gyrA or parC gene were transformed into E. coli S17-1 λpir^23 via electroporation and mobilized into K. pneumoniae strain NVT1001 via conjugation. Single-crossover strains were selected from BIND plates supplemented with kanamycin (50 mg/L), as the growth of non-K. pneumoniae contaminants is suppressed on BIND plates.^24 After the kanamycin-resistant transconjugants were selected, the insertion of plasmids was verified via PCR. After incubation in 20 mL BHI broth for 6 hours at 37° C. in the absence of kanamycin, the fully grown cultures were spread onto LB agar plates supplemented with 10% sucrose. After the double crossover occurred, the sucrose-resistant and kanamycin-susceptible colonies were selected, and the gene mutations were confirmed via PCR.
as §1

The subject of assay [7] is K. pneumoniae NVT1001 gyrA/parC and gyrA/parC/ramR mutants and revertants. Nature of the assay: Etest MIC of quinolones, gyrA/parC and gyrA/parC/ramR mutants and their revertants (Table 11). Conditions: Klebsiella pneumoniae. Format: cell-based.
Excerpt: The allelic-exchange method was used to restore the wild-type gene in the K. pneumoniae NVT1001 mutants with constructed chromosome-mediated resistance mechanisms, as described by Tsai et al.^19 Briefly, a DNA fragment of the entire wild-type gene sequence along with flanking regions was amplified from K. pneumoniae NVT1001 using PCR with specific primers. The resulting PCR fragment was digested and then cloned into pUT-KB. For homologous recombination, this plasmid was transformed into E. coli S17-1 λpir^23 via electroporation and mobilized into the K. pneumoniae NVT1001 mutant via conjugation. […] After incubation in 20 mL BHI broth for 6 hours at 37° C. in the absence of kanamycin, the fully grown cultures were spread onto LB agar plates supplemented with 10% sucrose. After the double crossover occurred, the sucrose-resistant and kanamycin-susceptible colonies were selected, and the restoration of the wild-type gene was confirmed via DNA sequencing.
as §1

≈ marks a conversion by molar mass, not a printed value. Like-named read-outs stand apart in the source and are kept apart here.

With `C[C@H]1[C@H](NC(=O)/C(=N\OC(C)(C)C(=O)O)c2csc(N)n2)C(=O)N1S(=O)(=O)O` [Aztreonam], the “effects on the MIC” value in assay [1] (production of each carbapenemase tested) is on record as “no increase effects”.
The MIC is the lowest concentration found to suppress growth. Consider `CO/N=C(\C(=O)N[C@@H]1C(=O)N2C(C(=O)O)=C(COC(C)=O)CS[C@H]12)c1csc(N)n1` [Cefotaxime], for which, in assay [2] (BALB/c mice, 30 mg/kg), the survival of mice result was “no mice survived”. The compound further yielded an MIC in assay [3] of 2 µg/mL (≈ 4.39 µM).
Usually ED50 stands for the dose that gives a 50% effect, or the effect in half of the subjects. Take `CC(C)(O/N=C(\C(=O)N[C@@H]1C(=O)N2C(C(=O)[O-])=C(C[n+]3ccccc3)CS[C@H]12)c1csc(N)n1)C(=O)O` [Ceftazidime]: the “effects on the MIC” value in assay [1] (production of OXA-type carbapenemases) was “no increase effects”. Besides, the “ED50 (comparison)” value in assay [4] is recorded as “lower than that of cefotaxime”. Moreover, the “in vivo efficacy (comparison)” value in assay [2] (BALB/c mice) was “higher than that of cefotaxime”. For the same compound, in assay [2] (Klebsiella pneumoniae, sc, read-out: estimated ED50), the ED50 is 30 mg/kg. For the same compound, the MIC in assay [3] came out at 0.5 µg/mL (≈ 0.915 µM). In assay [5], the “MIC relative to that of cefotaxime” value was 4 fold lower.
On to `CC1COc2c(N3CCN(C)CC3)c(F)cc3c(=O)c(C(=O)O)cn1c23` (stereo not shown) [Ofloxacin, ofloxacin], for which the MIC was determined as 1 µg/mL in assay [6] (D87N mutant (GyrA D87N)); 1 µg/mL in assay [6] (D87N/S80I mutant); 0.25 µg/mL in assay [6] (NVT1001, read-out: MIC); 0.25 µg/mL in assay [6] (S80I mutant (ParC S80I)); 2 µg/mL in assay [6] (S83F mutant (GyrA S83F)); 2 µg/mL in assay [6] (S83F/D87N mutant). The MIC was determined as 16 µg/mL in assay [6] (S83F/D87N/S80I mutant); 2 µg/mL in assay [6] (S83F/S80I mutant); 2 µg/mL in assay [6] (S83I mutant (GyrA S83I)); 2 µg/mL in assay [6] (S83I/D87N mutant); 32 µg/mL in assay [6] (S83I/D87N/S80I mutant); 4 µg/mL in assay [6] (S83I/S80I mutant). Moreover, the minimal inhibitory concentration (MIC) in assay [6] (S83L mutant (GyrA S83L)) came to 2 µg/mL; in assay [6] (S83L/D87N mutant) it was 2 µg/mL; in assay [6] (S83L/D87N/S80I mutant), 32 µg/mL; in assay [6] (S83L/S80I mutant) it was 4 µg/mL; in assay [6] (S83Y mutant (GyrA S83Y)) it was 2 µg/mL; in assay [6] (S83Y/D87N mutant), 2 µg/mL. In addition, the MIC in assay [6] (S83Y/D87N/S80I mutant) is 16 µg/mL; in assay [6] (S83Y/S80I mutant), 2 µg/mL; in assay [6] (ΔramR mutant) it was 2 µg/mL; in assay [6] (ΔramR/S83I mutant), greater than 32 µg/mL; in assay [6] (ΔramR/S83I/D87N/S80I mutant), greater than 32 µg/mL; in assay [6] (ΔramR/S83I/S801 mutant), greater than 32 µg/mL. Also, the MIC amounted to 16 µg/mL in assay [7] (S83F/D87N/S80I mutant); 0.25 µg/mL in assay [7] (S83F/D87N/S80I::F83S/N87D/I80S revertant, read-out: MIC); 2 µg/mL in assay [7] (S83F/D87N/S80I::I80S revertant, read-out: MIC); 4 µg/mL in assay [7] (S83F/D87N/S80I::N87D revertant, read-out: MIC); 2 µg/mL in assay [7] (S83F/D87N/S80I::N87D/I80S revertant, read-out: MIC); 32 µg/mL in assay [7] (S83I/D87N/S80I mutant). The MIC in assay [7] (S83I/D87N/S80I::I80S revertant, read-out: MIC) turned out to be 2 µg/mL; in assay [7] (S83I/D87N/S80I::I83S/N87D/I80S revertant, read-out: MIC), 0.25 µg/mL; in assay [7] (S83I/D87N/S80I::N87D revertant, read-out: MIC), 8 µg/mL; in assay [7] (S83I/D87N/S80I::N87D/I80S revertant, read-out: MIC) it was 2 µg/mL; in assay [7] (S83L/D87N/S80I mutant) it was 32 µg/mL; in assay [7] (S83L/D87N/S80I::I80S revertant, read-out: MIC), 2 µg/mL. Besides, the minimum inhibitory concentration (MIC) in assay [7] (S83L/D87N/S80I::L83S/N87D/I80S revertant, read-out: MIC) was found to be 0.25 µg/mL; in assay [7] (S83L/D87N/S80I::N87D revertant, read-out: MIC), 4 µg/mL; in assay [7] (S83L/D87N/S80I::N87D/I80S revertant, read-out: MIC), 2 µg/mL; in assay [7] (S83Y/D87N/S80I mutant), 16 µg/mL; in assay [7] (S83Y/D87N/S80I::I80S revertant, read-out: MIC) it was 2 µg/mL; in assay [7] (S83Y/D87N/S80I::N87D revertant, read-out: MIC), 4 µg/mL. The MIC is 2 µg/mL in assay [7] (S83Y/D87N/S80I::N87D/I80S revertant, read-out: MIC); 0.25 µg/mL in assay [7] (S83Y/D87N/S80I::Y83S/N87D/I80S revertant, read-out: MIC); greater than 32 µg/mL in assay [7] (ΔramR/S83I/D87N/S80I mutant); 1 µg/mL in assay [7] (ΔramR/S83I/D87N/S80I:: ramR/I83S revertant); 1 µg/mL in assay [7] (ΔramR/S83I/D87N/S80I:: ramR/I83S/I80S revertant); 0.25 µg/mL in assay [7] (ΔramR/S83I/D87N/S80I:: ramR/I83S/N87D revertant). Further, the MIC is 2 µg/mL in assay [7] (ΔramR/S83I/D87N/S80I::I83S/N87D/I80S revertant), greater than 32 µg/mL in assay [7] (ΔramR/S83I/D87N/S80I::N87D revertant), greater than 32 µg/mL in assay [7] (ΔramR/S83I/D87N/S80I::N87D/I80S revertant) and 0.25 µg/mL in assay [7] (ΔramR/S83I/D87N/S80I::ramR/I83S/N87D/I80S).
